Source: patent US11638427B2, “Methods and compositions for altering secondary metabolites in plants” (Impello Biosciences, Inc, priority 2020, dated 2023)

How the values were obtained:
oranges = test: Fruit MDJ dips, 2 weeks observation; type: in vivo; conditions: dip 5, 10, 20 mM
Description: (§1) For fruit MDJ dips, all fruits were purchased from a local market as certified organic on 4/13/2021. Before any treatments, all fruits were submerged in boiling water to melt off any non-natural waxy coating then dried with a washcloth. Once fruits were clean and dry, they were submerged in varying concentrations of methyl dihydrojasmonate solutions. Each solution was prepared from a 1M MDJ Tween 20 stock solution diluted with RO water. 500 ml of each solution was prepared and reused for the different fruits. Each fruit was submerged for 20 seconds and then left to dry on a paper towel. After the fruits were dry the paper towels were removed and fruits left on the lab bench at room temperature grouped by treatment but not touching and monitored for visual differences for 2 weeks. The pineapple was the only fruit that was not fully submerged but instead sprayed till drip with the varying concentration of MDJ/Tween 20 solution. Then left to dry and monitored the same as the other fruits.
(§2) Treatments and Sample Sizes:
(§3) Control, water—4 lemons, 2 oranges, 1 pineapple, 1 mango, 4 strawberries, 2 grapes (˜10 grapes/bundle), 2 oranges, 4 avocados
(§4) [5] mM MDJ—4 lemons, 3 oranges, 1 pineapple, 1 mango, 4 strawberries, 2 grapes, 2 oranges, 4 avocados
(§5) [10] mM MDJ—4 lemons, 3 oranges, 0 pineapple, 1 mango, 4 strawberries, 2 grapes, 2 oranges, 4 avocados
(§6) [20] mM MDJ—5 lemons, 3 oranges, 1 pineapple, 1 mango, 4 strawberries, 2 grapes, 2 oranges, 4 avocados
(§7) Qualitative observations like color changes, firmness, mold appearance were monitored and at the end of the two weeks all fruits were cut in half to record and further observations. Penetrometer readings were recorded in the last week of observations.

grapes = test: Fruit MDJ dips, 2 weeks observation; type: in vivo; conditions: dip 5, 10, 20 mM
Description: as §1, §2, §3, §4, §5, §6, §7

avocados = test: Fruit MDJ dips, 2 weeks observation; type: in vivo
Description: as §1, §2, §3, §4, §5, §6, §7

lemons = test: Fruit MDJ dips, 2 weeks observation; type: in vivo; conditions: dip 5, 10, 20 mM for 20 seconds; 2 weeks at room temperature
Description: as §1, §2, §3, §4, §5, §6, §7

mangoes = test: Fruit MDJ dips, 2 weeks observation; type: in vivo; conditions: one fruit per group
Description: as §1, §2, §3, §4, §5, §6, §7

blood oranges = test: Fruit MDJ dips, 2 weeks observation; type: in vivo; conditions: dip 5, 10, 20 mM; observation period 2 weeks
Description: as §1, §2, §3, §4, §5, §6, §7

strawberries = test: Fruit MDJ dips, 2 weeks observation; type: in vivo
Botrytis spp. = test: Mold growth on jasmonate-infused plates, mold isolated from strawberry; type: cell-based; conditions: 1 mM, 5 mM, 10 mM, or 20 mM in plates
Description: (§8) MDJ (TCI, CAS No.: 24851-98-7) and CJ were infused into potato dextrose agar (PDA, VWR Cat No.: 90003-494) petri dishes (100×15 mm VWR, Cat No: 25384-094) at concentrations ranging from 1 mM, 4.25 mM, and 10 mM. Each treatment was prepared using a technical grade stock solution of pure chemical (CJ or MDJ) diluted with TWEEN®-20 (VWR, CAS No.: […]). Culturable oyster mushroom and seedling mold served to create fungal mycelial plugs using a sterile 1 mL pipette tip (Eppendorf, Cat No.: 022491458) held upside down. The tips were used to make circle excisions (i.e., fungal plugs) from a mycelial mat grown on PDA with no biochemical infusions. Fungal pugs were then transferred to PDA infused with varying concentrations of CJ or MDJ, and control plates (no CJ or MDJ infusion) to monitor fungal growth at room temperature over time.
(§9) Based on the above results in Cannabis spp., additional fungi from various crops was sampled and tested. Plates comprising various concentrations of MDJ or MJ were prepared as described above.

Penicillium spp. = test: Mold growth on jasmonate-infused plates, mold isolated from pineapple; type: cell-based; conditions: 5 mM, 10 mM, or 20 mM in plates
Description: as §8, §9

Nectria pseudotrichia = test: Mold growth on jasmonate-infused plates, mold 2 isolated from avocado; type: cell-based; conditions: various concentrations in plates
Description: as §8, §9

hemp plants Cv. Zephyr = test: Weekly MDJ foliar spray at four concentrations, cannabinoids and terpenes; type: in vivo, Cannabis spp.
Description: To investigate the effect of different concentrations of MDJ, four different concentrations of MDJ was applied to hemp plants (n=5 per treatment, Cv.: Zephyr, CBDRx) weekly via foliar spray at the following concentrations: 1 mM, 4.25 mM, 7.5 mM, 10 mM. Treatment concentrations were prepared as described above and one drop of TWEEN®-20 (VWR, CAS No.: 9005-64-5) was added to treatments to serve as a surfactant. Treatments were applied weekly during both the vegetative (2 treatments) and flowering (6 treatments) developmental stages using a SPRAYMASTER Chemical Sprayer (King of Prussia, Pa.) (8 treatments total). Plants were grown under a total of 12 Boost (Thrive Agritech, NY) 130-watt LED lights set to 18L: 6D photoperiod during the vegetative phase (2 weeks) followed by a 12L: 12D photoperiod during the flowering phase (6 weeks), using the same lighting. Untreated controls served as a comparison to see alterations in metabolite synthesis.

[1] = all tested concentrations (1, 4.25, 7.5, 10 mM) weekly foliar spray vs untreated controls

In the case of `CCCCCC1C(=O)CCC1CC(=O)OC` (stereo not shown) [MDJ, methyl dihydrojasmonate], the mold (oranges) is reported as “no appearance of mold”, the “mold or observable difference between groups” value (grapes) is reported as “did not exhibit any mold, or observable difference between groups” and the “browning when the fruits were cut open” value (avocados; dip 5 mM) is reported as “least signs of browning”. For the same molecule, the external browning (avocados; dip 10 mM and 20 mM groups (and control group)) was “more external browning”, the “visual differences externally or internally” value (lemons) was “no distinct visual differences” and the “internal browning when cut open, relative to the control group” value (mangoes; dip 5 mM) was “slightly less”. The “internal browning when cut open, relative to the control group” value (mangoes; dip 10 mM) was “less still”, the “internal browning when cut open” value (mangoes; dip 20 mM) was “no clear browning” and the mold (blood oranges) was “no mold in any of the treatment groups”. For the same molecule, the mold (strawberries; dip 1 M) was “prohibited mold for two weeks”, the mold (strawberries; dip 5, 10, 20 mM and control) was “mold in all groups after one week” and the “growth of mold isolated from strawberry” value (Botrytis spp.) was “effective at preventing the growth”. The “growth of mold isolated from pineapple” value (Penicillium spp.) was “effective at preventing the growth”, the “growth of mold isolated from avocado (mold 2)” value (Nectria pseudotrichia) was “effective at preventing the growth” and the CBDA (hemp plants Cv. Zephyr; [1]) was “significantly increased”. For the same molecule, the CBGA (hemp plants Cv. Zephyr; [1]) was “significantly increased”, the THCA (hemp plants Cv. Zephyr; [1]) was “significantly increased” and the “Total CBD” value (hemp plants Cv. Zephyr; [1]) was “significantly increased”. The “Total CBG” value (hemp plants Cv. Zephyr; [1]) was “significantly increased”, the Total cannabinoids (hemp plants Cv. Zephyr; [1]) was “significantly increased” and the several terpenes (hemp plants Cv. Zephyr; weekly foliar spray 1-10 mM) was “altered”. For the same molecule, the CBL (hemp plants Cv. Zephyr; weekly foliar spray, CBL not detected at all in the control samples) was “detectable levels”.
